Among the test systems are COLO 205 colon; SW-620 colon; IGROV1 ovarian; NCI-H226 lung; SK-MEL-5 melanoma; RPMI-8226 leukemia; HCT-116 colon; DU-145 prostate; SK-MEL-2 melanoma; PC-3 prostate.
Test in all cases: NCI anticancer screen, dose series, 48 h

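Briefly, cells in 96-well plates were exposed to five compound concentrations for 48 h, and endpoints were estimated by linear interpolation. Here, GI50 denotes the concentration required for 50% inhibition of growth. Definition used: TGI = concentration required for complete inhibition of growth.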

`CCC(C)n1cc(C)c2c(C(=O)NCc3c(C)cc(C)[nH]c3=O)cc(Br)cc21` (stereo not drawn): the GI50 in the experiment with COLO 205 colon was 42.1 µM; in the experiment with SW-620 colon, 36.4 µM; in the experiment on IGROV1 ovarian it was greater than 100 µM; in the experiment on NCI-H226 lung it was 57.5 µM; with SK-MEL-5 melanoma, 13.2 µM; in the experiment with RPMI-8226 leukemia it was 24.8 µM. The GI50 with HCT-116 colon is 48 µM; in the experiment on DU-145 prostate, 76.8 µM; with SK-MEL-2 melanoma, 35.9 µM; in the experiment on PC-3 prostate it was 19.1 µM. For the same compound, the TGI in the experiment with COLO 205 colon is greater than 100 µM; in the experiment on SW-620 colon, greater than 100 µM; in the experiment with IGROV1 ovarian, greater than 100 µM; in the experiment with NCI-H226 lung it was greater than 100 µM; in the experiment on SK-MEL-5 melanoma, 29.1 µM; in the experiment with RPMI-8226 leukemia, 68 µM. Also, the TGI with HCT-116 colon was greater than 100 µM; with DU-145 prostate, greater than 100 µM; with SK-MEL-2 melanoma, greater than 100 µM; with PC-3 prostate, 66.9 µM.
`Cc1nc2sccn2c(=O)c1CCN1CCC(=C(c2ccc(F)cc2)c2ccc(F)cc2)CC1`: the GI50 in the experiment on COLO 205 colon is 7.69 µM; in the experiment on SW-620 colon, 10.9 µM; in the experiment on IGROV1 ovarian it was 9.96 µM; with NCI-H226 lung it was 15.3 µM; in the experiment with SK-MEL-5 melanoma, 4.01 µM; with RPMI-8226 leukemia it was 3.78 µM. The GI50 in the experiment on HCT-116 colon was 5.36 µM; in the experiment with DU-145 prostate, 15.7 µM; with SK-MEL-2 melanoma, 16.8 µM; with PC-3 prostate, 4.81 µM. Also, the TGI is 24.1 µM with COLO 205 colon; 24.1 µM with SW-620 colon; 26.4 µM with IGROV1 ovarian; 41 µM with NCI-H226 lung; 15 µM with SK-MEL-5 melanoma; 25.2 µM in the experiment on RPMI-8226 leukemia. The TGI with HCT-116 colon turned out to be 20.3 µM; in the experiment on DU-145 prostate, 30.4 µM; with SK-MEL-2 melanoma, 32.2 µM; with PC-3 prostate it was 19.3 µM.
Regarding `O=C1OCC(c2cccs2)=C1Cl`, the GI50 with COLO 205 colon was 32.2 µM; in the experiment on SW-620 colon, greater than 100 µM; with IGROV1 ovarian it was greater than 100 µM; with NCI-H226 lung it was 28.2 µM; in the experiment on SK-MEL-5 melanoma, 86.3 µM; in the experiment with RPMI-8226 leukemia it was 32.2 µM. The GI50 was greater than 100 µM with HCT-116 colon, 26.7 µM in the experiment with DU-145 prostate, greater than 100 µM in the experiment with SK-MEL-2 melanoma and greater than 100 µM in the experiment with PC-3 prostate. Besides, the TGI with COLO 205 colon is greater than 100 µM; in the experiment with SW-620 colon, greater than 100 µM; with IGROV1 ovarian, greater than 100 µM; in the experiment on NCI-H226 lung it was 95.5 µM; in the experiment on SK-MEL-5 melanoma, greater than 100 µM; in the experiment on RPMI-8226 leukemia, greater than 100 µM. Further, the TGI in the experiment on HCT-116 colon, with DU-145 prostate, in the experiment with SK-MEL-2 melanoma and with PC-3 prostate was greater than 100 µM in each case.
Regarding `CC(C)C1OC(=O)C=C1Sc1ccccc1` (stereo not drawn), the TGI in the experiment on COLO 205 colon, in the experiment with SW-620 colon, with IGROV1 ovarian, with NCI-H226 lung, in the experiment on SK-MEL-5 melanoma and in the experiment with RPMI-8226 leukemia was greater than 100 µM in each case. The TGI with HCT-116 colon, in the experiment on DU-145 prostate, with SK-MEL-2 melanoma and in the experiment with PC-3 prostate was greater than 100 µM throughout.
Take `COc1cc(NCCCCN=C(N)NC(N)=NC(C)C)c2ncccc2c1`: the GI50 was 0.987 µM with COLO 205 colon; 5.76 µM in the experiment with SW-620 colon; 0.439 µM in the experiment with IGROV1 ovarian; 27 µM in the experiment on NCI-H226 lung; 2.84 µM in the experiment with SK-MEL-5 melanoma; 1.51 µM in the experiment with RPMI-8226 leukemia. Also, the GI50 in the experiment on HCT-116 colon was 2.26 µM; in the experiment with DU-145 prostate, 21 µM; in the experiment on SK-MEL-2 melanoma, 3.8 µM; with PC-3 prostate it was 2.22 µM. The TGI in the experiment with COLO 205 colon was 4.46 µM; in the experiment with SW-620 colon, 22.2 µM; with IGROV1 ovarian, 6.32 µM; in the experiment on NCI-H226 lung, greater than 100 µM; in the experiment with SK-MEL-5 melanoma it was 10.7 µM; in the experiment with RPMI-8226 leukemia, 11 µM. Besides, the TGI in the experiment on HCT-116 colon was 11.1 µM; in the experiment on DU-145 prostate it was greater than 59.9 µM; in the experiment on SK-MEL-2 melanoma it was 14.9 µM; in the experiment on PC-3 prostate, 16.8 µM.
In the case of `COc1ccc(/C(Cl)=C(\C=O)c2ccc([N+](=O)[O-])cc2)cc1OC`, the TGI is greater than 58.3 µM in the experiment on COLO 205 colon; 28.1 µM in the experiment with SW-620 colon; 38.6 µM in the experiment with IGROV1 ovarian; greater than 54.8 µM in the experiment on NCI-H226 lung; 23 µM with SK-MEL-5 melanoma; greater than 25.8 µM in the experiment with RPMI-8226 leukemia. For the same compound, the TGI is 24.9 µM with HCT-116 colon, greater than 100 µM with DU-145 prostate, greater than 77.1 µM in the experiment with SK-MEL-2 melanoma and 48.1 µM in the experiment on PC-3 prostate.
As for `O=[N+]([O-])c1ccc(-c2nc(-c3ccccc3)c(-c3ccccc3)n2-c2ccccc2)cc1`, the GI50 with COLO 205 colon is 1.78 µM; in the experiment with SW-620 colon it was 2.6 µM; in the experiment on IGROV1 ovarian, 2.42 µM; in the experiment with NCI-H226 lung, 4.57 µM; in the experiment with SK-MEL-5 melanoma, 1.8 µM; with RPMI-8226 leukemia it was 1.53 µM. The GI50 in the experiment with HCT-116 colon is 3.47 µM; with DU-145 prostate, 2.72 µM; in the experiment on SK-MEL-2 melanoma it was 3.04 µM; with PC-3 prostate it was 2.74 µM. In addition, the TGI in the experiment on COLO 205 colon was 3.49 µM; with SW-620 colon it was 9.28 µM; in the experiment with IGROV1 ovarian, 7.28 µM; in the experiment on NCI-H226 lung, greater than 24.5 µM; in the experiment with SK-MEL-5 melanoma, 3.81 µM; with RPMI-8226 leukemia it was 5.43 µM. Further, the TGI was 14 µM in the experiment with HCT-116 colon, 12.2 µM in the experiment with DU-145 prostate, 8.6 µM in the experiment with SK-MEL-2 melanoma and greater than 31.1 µM in the experiment with PC-3 prostate.
As to `Cc1cc2cc3cc(C)c(N(C)C)cc3nc2cc1N(C)C`, the GI50 is 1.84 µM with COLO 205 colon; 3.1 µM with SW-620 colon; 4.96 µM with IGROV1 ovarian; 3.19 µM with NCI-H226 lung; 1.73 µM in the experiment with SK-MEL-5 melanoma; 4.16 µM in the experiment with RPMI-8226 leukemia. Also, the GI50 in the experiment on HCT-116 colon is 2.12 µM; with DU-145 prostate it was 3.46 µM; in the experiment with SK-MEL-2 melanoma, 4.02 µM; in the experiment with PC-3 prostate, 2.4 µM. Moreover, the TGI in the experiment with COLO 205 colon was 7.41 µM; with SW-620 colon, 26.6 µM; in the experiment on IGROV1 ovarian it was greater than 100 µM; in the experiment with NCI-H226 lung, 24 µM; with SK-MEL-5 melanoma, 4.71 µM; in the experiment with RPMI-8226 leukemia, greater than 100 µM. Moreover, the TGI is greater than 100 µM in the experiment on HCT-116 colon, 25.8 µM with DU-145 prostate, 75.7 µM in the experiment with SK-MEL-2 melanoma and 39.9 µM in the experiment on PC-3 prostate.
For `CCOC(=O)c1sc2nc3sc(N=Nc4ccc(Cl)cc4)c(O)n3c(=S)c2c1C`, the GI50 is 17.7 µM in the experiment on COLO 205 colon; 35.4 µM in the experiment with SW-620 colon; greater than 100 µM with IGROV1 ovarian; 17.1 µM in the experiment on SK-MEL-5 melanoma; 21.4 µM with RPMI-8226 leukemia; 33.8 µM with HCT-116 colon. Also, the GI50 in the experiment with DU-145 prostate is 31.2 µM; in the experiment with SK-MEL-2 melanoma, greater than 100 µM; in the experiment with PC-3 prostate, 21.3 µM. Also, the TGI with COLO 205 colon is greater than 100 µM; in the experiment on SW-620 colon, greater than 100 µM; in the experiment with IGROV1 ovarian it was greater than 100 µM; in the experiment on NCI-H226 lung it was 21.6 µM; in the experiment with SK-MEL-5 melanoma it was 35.8 µM; in the experiment on RPMI-8226 leukemia it was greater than 100 µM. Besides, the TGI with HCT-116 colon, with DU-145 prostate, in the experiment with SK-MEL-2 melanoma and with PC-3 prostate was greater than 100 µM throughout.
Regarding `ClC1=C(Cl)C(Cl)=C(Cl)C1=C/C=C/c1ccccc1`, the GI50 in the experiment with COLO 205 colon was 0.226 µM; in the experiment with SW-620 colon, 0.299 µM; in the experiment with NCI-H226 lung it was 0.236 µM; with SK-MEL-5 melanoma, 0.196 µM; in the experiment with RPMI-8226 leukemia, less than 0.0374 µM; in the experiment with HCT-116 colon, 0.213 µM. Moreover, the values for the GI50 with DU-145 prostate, in the experiment with SK-MEL-2 melanoma and in the experiment with PC-3 prostate were 0.42 µM, 0.256 µM and 0.276 µM, respectively. Moreover, the TGI is 0.686 µM with COLO 205 colon; 0.869 µM with SW-620 colon; 0.0455 µM with IGROV1 ovarian; 0.653 µM with NCI-H226 lung; 0.563 µM with SK-MEL-5 melanoma; 0.275 µM in the experiment on RPMI-8226 leukemia. The TGI in the experiment on HCT-116 colon is 0.457 µM; with DU-145 prostate it was 1.32 µM; in the experiment with SK-MEL-2 melanoma, 0.678 µM; with PC-3 prostate, 2.65 µM.
With `COc1ccc(C(=O)c2ccc(OC)c(OC)c2OC)cc1`, the GI50 in the experiment with COLO 205 colon was 1.14 µM; with SW-620 colon, 0.377 µM; with IGROV1 ovarian, 1.76 µM; with NCI-H226 lung, 34.7 µM; with SK-MEL-5 melanoma, 1.68 µM; with RPMI-8226 leukemia, 2.59 µM. Moreover, the GI50 was 2.19 µM with HCT-116 colon, 2.14 µM in the experiment with DU-145 prostate, 0.402 µM in the experiment on SK-MEL-2 melanoma and 3.21 µM with PC-3 prostate. Further, the TGI in the experiment on COLO 205 colon was 3.13 µM; in the experiment with SW-620 colon, greater than 100 µM; in the experiment with IGROV1 ovarian, greater than 100 µM; in the experiment with NCI-H226 lung it was greater than 100 µM; in the experiment with SK-MEL-5 melanoma, 37.2 µM; with RPMI-8226 leukemia, greater than 100 µM. The TGI was greater than 100 µM in the experiment on HCT-116 colon, 10.6 µM with DU-145 prostate, 3.33 µM with SK-MEL-2 melanoma and greater than 100 µM with PC-3 prostate.
In the case of `CCOc1ccc([C@@H]2[C@@H](Oc3ccccc3)C(=O)N2c2cc(OC)c(OC)c(OC)c2)cc1`, the GI50 in the experiment with COLO 205 colon was 0.124 µM; in the experiment on SW-620 colon, 0.0536 µM; in the experiment with IGROV1 ovarian it was 0.15 µM; with NCI-H226 lung, 1.13 µM; in the experiment on SK-MEL-5 melanoma, 0.0395 µM; with RPMI-8226 leukemia, 0.0486 µM. For the same compound, the GI50 was 0.0437 µM in the experiment with HCT-116 colon, 0.218 µM with DU-145 prostate, 0.097 µM with SK-MEL-2 melanoma and 0.0706 µM in the experiment on PC-3 prostate. Moreover, the TGI is 0.506 µM with COLO 205 colon; greater than 100 µM with SW-620 colon; greater than 100 µM in the experiment with IGROV1 ovarian; greater than 100 µM in the experiment on NCI-H226 lung; 1.16 µM in the experiment with SK-MEL-5 melanoma; greater than 100 µM in the experiment on RPMI-8226 leukemia. Also, the TGI is 3.88 µM with HCT-116 colon, greater than 100 µM with DU-145 prostate, greater than 100 µM in the experiment on SK-MEL-2 melanoma and greater than 100 µM in the experiment on PC-3 prostate.

The values are drawn from PubChem BioAssay (NCI).
